What was measured:
Type in all cases: cell-based
ZIKA = assay: Antiviral activity against ZIKA in HEK 293 cells; details: Zika virus; for EC90: HEK293, read-out: ZIKA (HEK 293 cells) EC90; for log reduction at 10 µM: HEK293, read-out: ZIKA (HEK 293 cells) VTR (virus titer reduction)
[1] = Cytotoxicity (CC50) in NHDF cells; details: human, CHIKV
Method: (§1) As used herein, “CC50” is intended to refer to the concentration of a substance (e.g., a compound or a drug) that is required for 50% reduction of cell viability. In one aspect, an CC50 can refer to the concentration of a substance that is required for 50% reduction (i.e., cytotoxicity) in vivo, as further defined elsewhere herein.
VTR=Virus titer reduction in log at 10 μM concentration. NT: not tested, ND: not determined.

DENV = assay: Antiviral activity against DENV in HEK293 cells; details: Dengue virus; for EC90: HEK293, read-out: DENV (HEK293 cells) EC90; for log reduction at 10 µM: HEK293, read-out: DENV (HEK293 cells) VTR (virus titer reduction)
WNV = assay: Antiviral activity against WNV in HEK293 cells; details: West Nile virus; for EC90: HEK293, read-out: WNV (HEK293 cells) EC90; for log reduction at 10 µM: HEK293, read-out: WNV (HEK293 cells) VTR (virus titer reduction)
VEEV = assay: microbe, parasite or virus in culture; details: Venezuelan equine encephalitis virus, NHDF; for EC90: read-out: VEEV (NHDF cells) EC90; for log reduction at 10 µM: read-out: VEEV (NHDF cells) VTR (virus titer reduction)
CHIKV = assay: Antiviral activity against CHIKV in NHDF cells; details: Chikungunya virus; for EC90: read-out: CHIKV (NHDF cells) EC90; for log reduction at 10 µM: read-out: CHIKV (NHDF cells) VTR (virus titer reduction)
[2] = Cytotoxicity (CC50) in HEK293 cells; details: human, WNV
Method: as §1
The antiviral activity against Alpharviruses evaluated in HEK293 cells (4 hours pre-incubation with compound before infected with virus) is shown in Table 2 below. VTR=Virus titer reduction in log at 10 μM concentration. NT: not tested, ND: not determined

H3N2 strain = assay: Antiviral activity against Influenza H3N2 strain in MDCK cells; details: Influenza A virus; for EC90: 4-6 hours pre-incubation with compound; for log reduction at 20 µM: at 20 μM concentration, 4-6 hours pre-incubation, read-out: H3N2 strain (MDCK cells) VTR (virus titer reduction)
Method: (§2) The antiviral activity against Influenza viruses (H1N1 and H3N2 strains) evaluated in MDCK cells (4-6 hours pre-incubation with compound) shown in Table 5 below. VTR=Virus titer reduction in log at 20 μM concentration. NT: not tested, ND: not determined.

H1N1 strain = assay: Antiviral activity against Influenza H1N1 strain in MDCK cells; details: Influenza A virus; for EC90: 4-6 hours pre-incubation with compound; for log reduction at 20 µM: at 20 μM concentration, 4-6 hours pre-incubation, read-out: H1N1 strain (MDCK cells) VTR (virus titer reduction)
Method: as §2

[3] = Cytotoxicity (CC50) in MDCK cells; details: dog, H1N1
Method: as §1, §2

Compound | EC90 (ZIKA) [µM] | log reduction at 10 µM (ZIKA) | CC50 [1] [µM] | EC90 (DENV) [µM] | log reduction at 10 µM (DENV) | EC90 (WNV) [µM] | log reduction at 10 µM (WNV) | EC90 (VEEV) [µM] | log reduction at 10 µM (VEEV) | EC90 (CHIKV) [µM] | log reduction at 10 µM (CHIKV) | CC50 [2] [µM] | EC90 (H3N2 strain) [µM] | log reduction at 20 µM (H3N2 strain) | EC90 (H1N1 strain) [µM] | log reduction at 20 µM (H1N1 strain) | CC50 [3] [µM]
CCC(CC)COC(=O)[C@H](C)NP(=O)(OC[C@H]1O[C@@H](n2ncc(=O)[nH]c2=O)[C@H](O)[C@@H]1O)Oc1ccccc1 (mixture of isomers) [Compound 3, 2-ethylbutyl ((((2R,3S,4R,5R)-5-(3,5-dioxo-4,5-dihydro-1,2,4-triazin-2(3H)-yl)-3,4-dihydroxytetrahydrofuran-2-yl)methoxy)(phenoxy)phosphoryl)-L-alaninate] | 3.3 | 2.4 | > 40 | 2.5 | 3.5 | 2.9 | 3.2 | > 10 | 0 | > 10 | 0 | > 40 |  |  |  |  | 
CCC(CC)COC(=O)[C@H](C)NP(=O)(OC[C@H]1O[C@@H](n2ncc(N)nc2=O)C(O)C1O)Oc1ccccc1 (single isomer, unassigned) [Compound 17, 2-ethylbutyl ((((2r,9,4r,5r)-5-(5-amino-3-oxo-1,2,4-triazin-2(3H)-yl)-3,4-dihydroxytetrahydrofuran-2-yl)methoxy)-(phenoxy)phosphoryl)-L-alaninate] |  |  |  | > 30 |  |  |  | 5 | 1 |  |  |  |  |  |  |  | 
N[C@@H](Cc1ccccc1)C(=O)OC[C@H]1O[C@@H](n2ncc(=O)[nH]c2=O)[C@H](O)[C@@H]1O [Compound 11, ((2r,3s,4r,5r)-5-(3,5-dioxo-4,5-dihydro-1,2,4-triazin-2(3H)-yl)-3,4-dihydroxytetrahydrofuran-2-yl)methyl L-phenylalaninate] | > 30 |  | > 40 | > 30 |  | > 30 |  |  |  | > 10 | 0.05 |  | 0.78 | 3.4 | 0.14 | 3.4 | > 20
CC[C@@H](C)[C@@H](N)C(=O)OC[C@H]1O[C@@H](n2ncc(=O)[nH]c2=O)[C@H](O)[C@@H]1O [Compound 12, ((2r,3s,4r,5r)-5-(3,5-dioxo-4,5-dihydro-1,2,4-triazin-2(3H)-yl)-3,4-dihydroxytetrahydrofuran-2-yl)methyl D-isoleucinate] |  |  | > 40 | 0.5 | 3.9 |  |  |  |  | 0.89 | 4.55 | 6.2 |  |  |  |  | 
CC[C@H](C)[C@@H](N)C(=O)OC[C@H]1O[C@@H](n2ncc(=O)[nH]c2=O)C(O)C1O (stereo partly drawn) [Compound 13, ((2r,3s,4r,5r)-5-(3,5-dioxo-4,5-dihydro-1,2,4-triazin-2(3)-yl)-3,4-dihydroxytetrahydrofuran-2-yl)methyl D-alloisoleucinate] |  |  | > 40 | 0.5 | 4 |  |  |  |  | 0.51 | 4.3 | 6.7 |  | 2.8 |  | 3.6 | 
CC(C)C(=O)OC[C@H]1O[C@@H](n2ncc(=O)[nH]c2=O)[C@H](O)[C@@H]1O [Compound 14, ((2r,3s,4r,5r)-5-(3,5-dioxo-4,5-dihydro-1,2,4-triazin-2(3H)-yl)-3,4-dihydroxytetrahydrofuran-2-yl)-methyl isobutyrate] |  |  |  | 5 | 2.1 |  |  |  |  |  |  | > 40 | 16.4 | 3.3 | 3.6 | 3.3 | > 20
CCOP(=O)(OCC)OC[C@H]1O[C@@H](n2ncc(=O)[nH]c2=O)C(O)C1O (stereo partly drawn) [Compound 16, (2r,3s,4r,5r)-5-(3,5-dioxo-4,5-dihydro-1,2,4-triazin-2(3H)-yl)-3,4-dihydroxytetrahydrofuran-2-yl) methyl diethyl phosphate] | > 10 |  |  | > 30 |  | > 10 |  | 10.1 | 1.05 |  |  | > 40 |  |  | > 100 |  | > 100
CCCCCCCCCCCC(=O)Nc1cnn([C@@H]2O[C@H](CO)[C@@H](O)[C@H]2O)c(=O)n1 [Compound 19, N-(2-((2r,3r,4s,5r)-3,4-dihydroxy-5-(hydroxy-methyl)tetrahydrofuran-2-yl)-3-oxo-2,3-dihydro-1,2,4-triazin-5-yl)dodecanamide] | 1.1 | 2.6 |  | 0.6 | 2.1 | 0.7 | 4 |  |  |  |  | > 40 | 12.1 | 3.3 | 3.16 | 3.3 | > 20
CCCC(=O)Nc1cnn([C@@H]2O[C@H](CO)[C@@H](O)[C@H]2O)c(=O)n1 [Compound 20, N-(2-((2R,3R,4S,5R)-3,4-dihydroxy-5-(hydroxymethyl)tetrahydro-furan-2-yl)-3-oxo-2,3-dihydro-1,2,4-triazin-5-yl)butyramide] | 0.2 | 2.8 |  | 1.2 | 3 |  |  |  |  | 9 | 1.5 | 22.9 | 3.5 | 2.7 | 2.8 | 2.9 | > 20
O=C(Nc1cnn([C@@H]2O[C@H](CO)[C@@H](O)[C@H]2O)c(=O)n1)C1CC1 [Compound 21, N-(2-((2R,3R,4S,5R)-3,4-dihydroxy-5-(hydroxymethyl)tetrahydro-furan-2-yl)-3-oxo-2,3-dihydro-1,2,4-triazin-5-yl)cyclopropane-carboxamide] | 0.2 | 4 |  | 0.34 | 3.4 | 0.4 | 4.5 |  |  | 4.9 | 1.7 | 18.9 | 3.9 | 3 | 2.8 | 3.6 | > 20
O=C(Nc1cnn([C@@H]2O[C@H](CO)[C@@H](O)[C@H]2O)c(=O)n1)C1CCC1 [Compound 22, N-(2-((2R,3R,4S,5R)-3,4-dihydroxy-5-(hydroxymethyl)-tetrahydrofuran-2-yl)-3-oxo-2,3-dihydro-1,2,4-triazin-5-yl)-cyclobutanecarboxamide] | 0.4 | 2.6 |  | 1 | 3.2 |  |  |  |  | 8 | 0.89 | 6.46 | 3.9 | 3 | 0.68 | 2.9 | 19
CCOC(=O)Nc1cnn([C@@H]2O[C@H](CO)[C@@H](O)[C@H]2O)c(=O)n1 [Compound 23, ethyl (2-((2R,3R,4S,5R)-3,4-dihydroxy-5-(hydroxy-methyl)tetrahydrofuran-2-yl)-3-oxo-2,3-dihydro-1,2,4-triazin-5-yl)carbamate] | 0.3 | 3 |  | 1.3 | 3.3 |  |  |  |  | > 10 | 0 | 22.4 | 6.3 | 2 | 3.78 | 3.6 | > 20
CCCCCOC(=O)Nc1cnn([C@@H]2O[C@H](CO)[C@@H](O)[C@H]2O)c(=O)n1 [Compound 24, pentyl (2-((2R,3R,4S,5R)-3,4-dihydroxy-5-(hydroxy-methyl)tetrahydrofuran-2-yl)-3-oxo-2,3-dihydro-1,2,4-triazin-5-yl)carbamate] | 0.3 | 3.1 |  | 1.2 | 3.3 |  |  |  |  | > 10 | 0 | 20.4 |  | 1.6 |  | 2.9 | 
CC[C@H](C)[C@H](N)C(=O)OC[C@H]1O[C@@H](n2ncc(N)nc2=O)[C@H](O)[C@@H]1O [Compound 25, ((2r,3s,4r,5r)-5-(5-amino-3-oxo-1,2,4-triazin-2(3H)-yl)-3,4-dihydroxytetrahydrofuran-2-yl)methyl L-isoleucinate] |  |  | > 40 | 5.1 | 2 |  |  | 1.5 | 2.17 | 0.85 | 2.58 | > 40 |  |  |  |  | 

Reference: US11858956B2, “6-aza-nucleoside prodrugs as antiviral agents for treating virus infections” (Southern Research Institute, priority 2020, dated 2024)
